In ChEMBL document CHEMBL5236569, “Emodin lows NPC1L1-mediated cholesterol absorption as an uncompetitive inhibitor” (2022):
Activity calls are given as the source filed them. The calls are words filed in the database; no cut-off is given here.

Tests used:
[1] = Inhibition of cholesterol uptake in human HepG2 cells at 100 uM relative to control; type: functional
[2] = Inhibition of cholesterol uptake in human Caco-2 cells at 100 uM relative to control; type: functional
[3] = target: T1, NPC1-like intracellular cholesterol transporter 1 (Homo sapiens) (UniProt Q9UHC9); assay: Inhibition of NPC1L1in human HepG2 cells assessed as reduction in intracellular cholesterol content incubated for 60 mins by filipin dye based confocal microscopy analysis; type: cell-based
T1 sequence (whole entry): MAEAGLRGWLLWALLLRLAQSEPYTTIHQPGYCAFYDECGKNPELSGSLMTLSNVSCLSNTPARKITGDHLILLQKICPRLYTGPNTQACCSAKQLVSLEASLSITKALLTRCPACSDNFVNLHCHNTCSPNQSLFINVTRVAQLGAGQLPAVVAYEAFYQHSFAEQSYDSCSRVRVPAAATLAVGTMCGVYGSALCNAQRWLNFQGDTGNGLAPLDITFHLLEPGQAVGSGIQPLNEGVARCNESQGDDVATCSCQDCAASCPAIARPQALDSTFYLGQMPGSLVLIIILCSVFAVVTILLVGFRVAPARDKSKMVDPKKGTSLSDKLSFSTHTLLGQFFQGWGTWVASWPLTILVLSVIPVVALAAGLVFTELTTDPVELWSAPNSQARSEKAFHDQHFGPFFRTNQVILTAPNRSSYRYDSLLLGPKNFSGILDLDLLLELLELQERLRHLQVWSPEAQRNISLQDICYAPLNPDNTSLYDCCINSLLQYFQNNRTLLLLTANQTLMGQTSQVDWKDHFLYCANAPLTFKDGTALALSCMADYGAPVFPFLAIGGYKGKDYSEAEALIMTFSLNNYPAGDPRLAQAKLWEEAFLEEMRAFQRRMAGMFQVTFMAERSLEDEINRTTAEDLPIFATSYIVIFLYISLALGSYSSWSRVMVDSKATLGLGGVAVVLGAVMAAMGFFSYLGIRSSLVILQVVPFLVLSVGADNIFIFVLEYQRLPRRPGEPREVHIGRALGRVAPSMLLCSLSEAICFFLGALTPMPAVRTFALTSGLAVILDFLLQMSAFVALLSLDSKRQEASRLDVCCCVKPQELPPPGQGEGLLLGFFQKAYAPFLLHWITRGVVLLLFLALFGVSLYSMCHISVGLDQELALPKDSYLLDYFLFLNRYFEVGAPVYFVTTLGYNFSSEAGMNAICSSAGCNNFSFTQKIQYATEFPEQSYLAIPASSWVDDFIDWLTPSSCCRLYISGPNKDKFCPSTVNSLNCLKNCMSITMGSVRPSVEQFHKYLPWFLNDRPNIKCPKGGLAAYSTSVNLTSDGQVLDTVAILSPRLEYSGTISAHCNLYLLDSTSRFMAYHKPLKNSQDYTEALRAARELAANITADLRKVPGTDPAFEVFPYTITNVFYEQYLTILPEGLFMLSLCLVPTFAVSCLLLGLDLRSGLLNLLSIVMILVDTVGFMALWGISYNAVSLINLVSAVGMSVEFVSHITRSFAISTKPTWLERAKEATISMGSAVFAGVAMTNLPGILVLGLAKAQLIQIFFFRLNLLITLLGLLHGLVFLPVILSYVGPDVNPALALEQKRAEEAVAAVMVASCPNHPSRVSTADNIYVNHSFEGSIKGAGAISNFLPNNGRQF

[4] = target: T1, NPC1-like intracellular cholesterol transporter 1 (Homo sapiens); assay: Inhibition of NPC1L1in human HepG2 cells assessed as increase in intracellular cholesterol content incubated for 60 mins by filipin dye based confocal microscopy analysis; type: cell-based
[5] = Inhibition of cholesterol uptake in human HepG2 cells at 75 uM relative to control; type: functional
[6] = Inhibition of cholesterol uptake in human HepG2 cells at 50 uM relative to control; type: functional
[7] = Inhibition of cholesterol uptake in human HepG2 cells at 25 uM relative to control; type: functional
[8] = Inhibition of cholesterol uptake in human HepG2 cells at 12.5 uM relative to control; type: functional
[9] = Inhibition of cholesterol uptake in human Caco-2 cells at 75 uM relative to control; type: functional
[10] = Inhibition of cholesterol uptake in human Caco-2 cells at 50 uM relative to control; type: functional
[11] = Inhibition of cholesterol uptake in human Caco-2 cells at 25 uM relative to control; type: functional
[12] = Inhibition of cholesterol uptake in human Caco-2 cells at 12.5 uM relative to control; type: functional
[13] = target: T1, NPC1-like intracellular cholesterol transporter 1 (Homo sapiens); assay: […] inhibition of NPC1L1 (unknown origin) assessed as decrease in Km at upto 150 uM by Lineweaver-burk double inverse plot analysis
[14] = target: T1, NPC1-like intracellular cholesterol transporter 1 (Homo sapiens); assay: […] inhibition of NPC1L1 (unknown origin) assessed as decrease in Vmax at upto 150 uM by Lineweaver-burk double inverse plot analysis
[15] = tested on: HepG2; assay: Effect on NPC1L1 expression in human HepG2 cells at 1 to 100 uM incubated for 24 hrs; type: functional, cell-based; settings: dose 1-100 µM

SMILES: O=C1[C@H](CC[C@H](O)c2ccc(F)cc2)[C@@H](c2ccc(O)cc2)N1c1ccc(F)cc1 [EZETIMIBE]
- inhibition at 100 µM [1]: 48.3%
- inhibition at 100 µM [2]: 70%
- Activity [3]: inactive
- Activity [4]: Active

SMILES: Cc1cc(O)c2c(c1)C(=O)c1cc(O)cc(O)c1C2=O [EMODIN]
- inhibition at 100 µM [1]: 27%
- inhibition at 75 µM [5]: 31.3%
- inhibition at 50 µM [6]: 33.6%
- inhibition at 25 µM [7]: 41.6%
- inhibition at 12.5 µM [8]: 52.6%
- inhibition at 100 µM [2]: 29%
- inhibition at 75 µM [9]: 28%
- inhibition at 50 µM [10]: 32.3%
- inhibition at 25 µM [11]: 39.6%
- inhibition at 12.5 µM [12]: 44.3%
- Activity [3]: Active
- Activity [4]: Active
- Activity [13]: Active
- Activity [14]: Active
- Activity [15]: Active
